Source: patent US9253983B2, “Triazole compound and use thereof” (KUREHA CORPORATION, priority 2011, dated 2016)

Key:
rice plant [1] = experiment: Necrosis (adverse effects) of seed treatment on rice plant seeds; format: in vivo; conditions: treatment amount 80 g ai/100 kg seeds, 20 days after sowing
Experimental: A pot experiment was performed to evaluate necrosis (adverse effects) caused by the seed treatment. Compound (1-1a) and Compound (1-2a), each which was dissolved in DMSO to make up such a concentration that the seeds would be treated in treatment amount of 2 g to 200 g ai/100 kg seeds, were each applied to wheat seeds in a vial, and thereafter 8 wheat seeds were sowed in an 80-cm^2 pot. The pot was kept in a greenhouse with water supplied to its bottom. 20 days after the sowing, an extent of necrosis (percentage of necrotic surface area) of wheat was evaluated. A necrosis index was derived from the percentage of the necrotic surface area, based on the criteria shown by Table 13. In Table 13, a smaller necrosis index indicates a lesser adverse effect of necrosis caused by the treatment with the use of a plant disease controlling agent.
A pot experiment was performed to evaluate necrosis (adverse effects) caused by the seed treatment. Compound (1-1a), which was dissolved in DMSO to make up such a concentration that the seeds would be treated in treatment amount of 80 g ai/100 kg seeds, was applied to rice plant seeds in a vial, and thereafter 16 rice plant seeds were sowed in a 50-cm^2 pot. […] 20 days after the sowing, an extent of necrosis (percentage of necrotic surface area) of rice plant was evaluated. A necrosis index was calculated as was in Experiment Example 6.

[2] = system: Erysiphe graminis f. sp tritici; experiment: Controlling effect on wheat powdery mildew by foliage spray treatment (Tests 1 and 2); format: in vivo; conditions: foliage spray 12.5 mg/L, 1,000 L/ha
Text: The suspension was sprayed at 1,000 L/ha to leaves of wheat plants (cultivar: NORIN No. 61) in their second leaf stage. The wheat plants had been grown in square plastic pots (6 cm×6 cm). After the suspension was left to dry, the plants were inoculated with Erysiphe graminis f. sp tritici taken from wheat plants infected with wheat powdery mildew, by sprinkling. 8 days and 11 days after the inoculation, the lesion degree of the wheat powdery mildew was examined in accordance with the criteria shown in Table 4. The protective values were found in the same way as in Experiment Example 2.
The suspension was sprayed at 1,000 L/ha to leaves of wheat plants (cultivar: NORIN No. 61) in their second leaf stage. The wheat plants had been grown in square plastic pots (6 cm×6 cm). After the leaves were air-dried, they were inoculated with Erysiphe graminis f. sp tritici taken from wheat plants infected with wheat powdery mildew, by sprinkling. 8 days after the inoculation, the lesion degree of the wheat powdery mildew was examined. The protective values were calculated as were in Experiment Example 1.

Alternaria alternata = experiment: Test 1 for antifungal effect, plate medium: A.m; format: cell-based; conditions: PDA plate medium
Experimental: (§1) Compound (1-1a) or Compound (1-2a) was dissolved in dimethyl sulfoxide, and the resulting solution was added to a PDA medium (potato dextrose-agar medium) at about 60° C. The medium and the solution were mixed thoroughly in a conical flask, poured into a petri dish, and allowed to solidify. In this way, a plate medium containing Compound (1-1a) or Compound (1-2a) at a certain concentration was prepared.
(§2) Meanwhile, test microorganisms cultured on a plate medium in advance were cut out with the use of a cork borer 4 mm in diameter, and were inoculated onto the compound-containing plate medium. After the inoculation, the microorganisms were cultured at their optimum growth temperatures (for example, refer to LIST OF CULTURES 1996 microorganisms 10th edition, Institute for Fermentation (foundation)) for 1 day to 7 days, and their growth was determined by measuring the diameter of their flora. The extent of growth of the microorganisms on the compound-containing plate medium was compared with that of microorganisms on a plate medium where no compound was added, and mycelial growth inhibition rate was calculated by the following equation: R=100(dc−dt)/dc where R is mycelial growth inhibition rate (%), dc is the flora diameter in untreated plate, and dt is the flora diameter in plate treated with the compound.
(§3) A larger antifungal index indicates a better antifungal effect.

rice Bakanae disease = experiment: Efficacy of seed treatment on rice Bakanae disease; format: in vivo, Gibberella fujikuroi; conditions: rice seed treatment 80 g ai/100 kg seeds, 20 days after sowing
Experimental: A pot experiment was performed to evaluate the effectiveness of the seed treatment in controlling rice Bakanae disease. Compound (1-1a), which was dissolved in DMSO to make up such a concentration that the seeds would be treated in treatment amount of 80 g ai/100 kg seeds, was applied in a vial to seeds of a rice plant infected with rice Bakanae disease, and thereafter 16 rice plant seeds were sowed in a 50-cm^2 pot. The pot was kept in a greenhouse with water supplied to its bottom. 20 days after the sowing, examination was conducted on the percentage of seedlings infected with […]. Then, protective values were calculated as were in Experiment Example 4.

rice plant [3] = experiment: Growth inhibition (adverse effects) of seed treatment on rice plant seeds; format: in vivo; conditions: treatment amount 80 g ai/100 kg seeds, 20 days after sowing
Experimental: A pot experiment was performed to evaluate the growth inhibition (adverse effects) caused by the seed treatment. Compound (1-1a) and Compound (1-2a), each of which was dissolved in DMSO to make up such a concentration that the seeds would be treated in treatment amount of 2 g to 200 g ai/100 kg seeds, were each applied to wheat seeds in a vial, and thereafter 8 wheat seeds were sowed in an 80-cm^2 pot. The pot was kept in a greenhouse with water supplied to its bottom. 20 days after the sowing, a growth measure of wheat was evaluated. A growth inhibition index was calculated based on the criteria shown by Table 10. In Table 10, a smaller growth inhibition index indicates a lesser adverse effect of growth inhibition caused by the treatment with the use of a plant disease controlling agent.
A pot experiment was performed to evaluate the growth inhibition (adverse effects) caused by the seed treatment. Compound (1-1a), which was dissolved in DMSO to make up such a concentration that the seeds would be treated in treatment amount of 80 g ai/100 kg seeds, was applied to rice plant seeds in a vial, and thereafter 16 rice plant seeds were sowed in a 50-cm^2 pot. The pot was kept in a greenhouse with water supplied to its bottom. 20 days after the sowing, a growth measure of rice plant was evaluated. A growth inhibition index was calculated as was in Experiment Example 5.

[4] = system: Pseudocercoporella herpotrichoides; experiment: Test 1 for antifungal effect, plate medium: P.h; format: cell-based; conditions: PDA plate medium
Experimental: as §1, §2, §3

Cercospora beticola = experiment: Test 1 for antifungal effect, plate medium: C.b; format: cell-based; conditions: PDA plate medium
Experimental: as §1, §2, §3

With `CC1(CCl)CCC(Cc2ccc(Cl)cc2)C1(O)Cn1cncn1` (single isomer, unassigned) [Compound (1-1a), (1,2-cis, 1,5-cis)-5-(4-chlorobenzyl)-2-chloromethyl-2-methyl-1-(1H-1,2,4-triazole-1-ylmethyl)cyclopentanol] the Necrosis index (rice plant [1]) was 0 (Less than 1%), the “Protective value (%) (8 days after treatment)” value [2] was 96% and the “Protective value (%) (11 days after treatment)” value [2] was 84%. The “Antifungal index (mycelial growth inhibition rate)” value (Alternaria alternata; 0.16 mg/L) was 1 (Less than 60%), the “Antifungal index (mycelial growth inhibition rate)” value (Alternaria alternata; 0.31 mg/L) was 4 (Less than 90% but not less than 80%) and the “Antifungal index (mycelial growth inhibition rate)” value (Alternaria alternata; 0.63 mg/L) was 4 (Less than 90% but not less than 80%). The “Antifungal index (mycelial growth inhibition rate)” value (Alternaria alternata; 1.25 mg/L) was 5 (90% or greater), the “Antifungal index (mycelial growth inhibition rate)” value (Alternaria alternata; 2.50 mg/L) was 5 (90% or greater) and the “Protective value (%)” value (rice Bakanae disease) was 100%. The Growth inhibition index (rice plant [3]) was 0 (50% or more), the “Antifungal index (mycelial growth inhibition rate)” value ([4]; 0.16 mg/L) was 1 (Less than 60%) and the “Antifungal index (mycelial growth inhibition rate)” value ([4]; 0.31 mg/L) was 5 (90% or greater). The “Antifungal index (mycelial growth inhibition rate)” value ([4]; 0.63 mg/L) was 5 (90% or greater), the “Antifungal index (mycelial growth inhibition rate)” value ([4]; 1.25 mg/L) was 5 (90% or greater) and the “Antifungal index (mycelial growth inhibition rate)” value ([4]; 2.50 mg/L) was 5 (90% or greater). The “Antifungal index (mycelial growth inhibition rate)” value (Cercospora beticola; 0.16 mg/L) was 4 (Less than 90% but not less than 80%), the “Antifungal index (mycelial growth inhibition rate)” value (Cercospora beticola; 0.31 mg/L) was 5 (90% or greater) and the “Antifungal index (mycelial growth inhibition rate)” value (Cercospora beticola; 0.63 mg/L) was 5 (90% or greater). For the same compound, the “Antifungal index (mycelial growth inhibition rate)” value (Cercospora beticola; 1.25 mg/L) was 5 (90% or greater) and the “Antifungal index (mycelial growth inhibition rate)” value (Cercospora beticola; 2.50 mg/L) was 5 (90% or greater).
For `CC1(CCl)CCC(Cc2ccc(Cl)cc2)C1(O)Cn1cncn1` (single isomer, unassigned) [Compound (1-1b), (1,2-cis, 1,5-cis)-5-(4-chlorobenzyl)-2-chloromethyl-2-methyl-1-(1H-1,2,4-triazole-1-ylmethyl)cyclopentanol], the Necrosis index (rice plant [1]) was 2 (Less than 20% but not less than 5%), the “Protective value (%) (8 days after treatment)” value [2] was 71% and the “Protective value (%) (11 days after treatment)” value [2] was 58%. The “Antifungal index (mycelial growth inhibition rate)” value (Alternaria alternata; 0.16 mg/L) was 1 (Less than 60%), the “Antifungal index (mycelial growth inhibition rate)” value (Alternaria alternata; 0.31 mg/L) was 3 (Less than 80% but not less than 70%) and the “Antifungal index (mycelial growth inhibition rate)” value (Alternaria alternata; 0.63 mg/L) was 4 (Less than 90% but not less than 80%). For the same compound, the “Antifungal index (mycelial growth inhibition rate)” value (Alternaria alternata; 1.25 mg/L) was 4 (Less than 90% but not less than 80%), the “Antifungal index (mycelial growth inhibition rate)” value (Alternaria alternata; 2.50 mg/L) was 5 (90% or greater) and the “Protective value (%)” value (rice Bakanae disease) was 66%. For the same compound, the Growth inhibition index (rice plant [3]) was 4 (Less than 20% but 10% or more), the “Antifungal index (mycelial growth inhibition rate)” value ([4]; 0.16 mg/L) was 1 (Less than 60%) and the “Antifungal index (mycelial growth inhibition rate)” value ([4]; 0.31 mg/L) was 1 (Less than 60%). For the same compound, the “Antifungal index (mycelial growth inhibition rate)” value ([4]; 0.63 mg/L) was 2 (Less than 70% but not less than 60%), the “Antifungal index (mycelial growth inhibition rate)” value ([4]; 1.25 mg/L) was 3 (Less than 80% but not less than 70%) and the “Antifungal index (mycelial growth inhibition rate)” value ([4]; 2.50 mg/L) was 4 (Less than 90% but not less than 80%). For the same compound, the “Antifungal index (mycelial growth inhibition rate)” value (Cercospora beticola; 0.16 mg/L) was 3 (Less than 80% but not less than 70%), the “Antifungal index (mycelial growth inhibition rate)” value (Cercospora beticola; 0.31 mg/L) was 4 (Less than 90% but not less than 80%) and the “Antifungal index (mycelial growth inhibition rate)” value (Cercospora beticola; 0.63 mg/L) was 5 (90% or greater). The “Antifungal index (mycelial growth inhibition rate)” value (Cercospora beticola; 1.25 mg/L) was 5 (90% or greater) and the “Antifungal index (mycelial growth inhibition rate)” value (Cercospora beticola; 2.50 mg/L) was 5 (90% or greater).
